Values joined by “and” are separate entries in the source; they are usually repeats but may differ in a detail not shown here. Equal entries are not always repeated.
Key:
[1] = instrument: TW, calibrated with polyalanine and drug standards
[2] = instrument: DT, single field, calibrated with ESI Low Concentration Tuning Mix (Agilent)

SMILES	collision cross section (N2) ([2]; [M+H]+)	collision cross section (N2) ([2]; [M+Na]+) [Å²]	collision cross section (N2) ([2]; [M-H]-)	also measured
O=c1nc[nH]c2nc[nH]c12 [HYPOXANTHINE]	127.2 Å²	134.4	116.9 Å²	collision cross section (N2) ([1]; [M+H]+): 123.1 Å²; collision cross section (N2) ([2]; [M+Na-2H]-): 134.4 Å²
N[C@@H](Cc1cc(I)c(Oc2ccc(O)c(I)c2)c(I)c1)C(=O)O [LIOTHYRONINE]	209.1 Å²	194.3	–	collision cross section (N2) ([1]; [M+H]+): 205.3 Å²
OC[C@@H](O)[C@@H](O)[C@H](O)[C@H](O)CO [MANNITOL]	–	141.1	–	collision cross section (N2) ([1]; [M+Na]+): 139.6 Å²
COc1ccc2[nH]cc(CCNC(C)=O)c2c1 [MELATONIN]	153.2 Å²	–	–	collision cross section (N2) ([1]; [M+H]+): 152 Å²; collision cross section (N2) ([2]; [M+K]+): 158.3 Å²
OC[C@H]1O[C@H](OC[C@H]2OC(O)[C@H](O)[C@@H](O)[C@@H]2O)[C@H](O)[C@@H](O)[C@H]1O (stereo partly specified) [MELIBIOSE]	180.4 Å²	177.3	178.1 Å²	collision cross section (N2) ([1]; [M+Na]+): 174.8 Å²; collision cross section (N2) ([2]; [M+K]+): 180 Å²
Cn1c(=O)[nH]c2ncn(C)c2c1=O [PARAXANTHINE]	138.7 Å²	149.5	–	collision cross section (N2) ([1]; [M+H]+): 132.4 Å²
NCCCNCCCCNCCCN [SPERMINE]	148.6 Å²	151.5	–	–
CCCCCCCCCCCCCCC[C@@H](O)[C@@H](N)CO [SPHINGANINE]	189 Å²	191.1	–	–
Cn1cnc2c1c(=O)[nH]c(=O)n2C [THEOBROMINE]	131.2 Å² and 136.9 Å²	–	–	–
Cn1c(=O)c2[nH]cnc2n(C)c1=O [THEOPHYLLINE]	–	–	132 Å²	collision cross section (N2) ([1]; [M+H]+): 133.5 Å²
C[C@@H](O)[C@H](N)C(=O)O [THREONINE]	126.7 Å²	–	120.2 Å²	–
O=C(O)[C@@H]1C[C@@H](O)CN1 [TRANS-4-HYDROXY-L-PROLINE]	127.9 Å²	139.3	126.2 Å² and 126.3 Å²	–
O=C/C=C/c1ccccc1 [TRANS-CINNAMALDEHYDE]	121.5 Å²	–	–	–
O=C(O)c1c[nH]c(=O)[nH]c1=O [URACIL 5-CARBOXYLATE]	–	139.8	118.9 Å²	–
O=c1[nH]c(=O)c2[nH]c(=O)[nH]c2[nH]1 [URATE]	130.7 Å²	–	–	–
O=c1ccn([C@@H]2O[C@H](COP(=O)(O)OP(=O)(O)OP(=O)(O)O)[C@@H](O)[C@H]2O)c(=O)[nH]1 [URIDINE TRIPHOSPHATE]	187 Å²	188.8	180.1 Å² and 180.2 Å²	collision cross section (N2) ([2]; [M+Na-2H]-): 190.2 Å²
O=c1ccn([C@@H]2O[C@H](CO)[C@@H](O)[C@H]2O)c(=O)[nH]1 [URIDINE]	–	160.9	150.7 Å²	–
O=c1[nH]c(=O)c2[nH]cnc2[nH]1 [XANTHINE]	129.9 Å²	–	120.6 Å²	–
O=C(O)c1cc(=O)c2cccc(O)c2[nH]1 [XANTHURENATE]	140.4 Å²	147.7	134.3 Å²	–
OC[C@@H](O)C(O)[C@@H](O)CO (stereo partly specified) [XYLITOL]	–	135.4	124.8 Å²	–
OC1OC[C@@H](O)[C@H](O)[C@H]1O (stereo partly specified) [XYLOSE]	–	134.9	–	–
